# Test results reported in patent US20030130200A1, “Small peptides and methods for treatment of asthma and inflammation” (Hisatek, LLC, priority 1997, published 2003).
# “Also recorded” adds a separate entry of the source. Where no end group is shown, it is not given here. The star is where a group is joined. For = O=C*
# Tested on: OVA-induced asthmatic mice
# Experiment: OVA-induced bronchial asthma mouse model, Standard/Resolution protocols, drug before each i.n. challenge
# Assay type: in vivo, mouse (female BALB/c)
# From the text: The OVA-Induced Bronchial Asthma Mouse Model for Inhibition of Mast Cell Degranulation
# Reagents: Crystalline OVA was obtained from Pierce Chem. Co. (Rockford, Ill.) aluminum potassium sulfate (alum) from Sigma Chem. Co. (St. Louis, Mo.), pyrogen-free distilled water from Baxter, Healthcare Corporation (Deerfield, Ill.), 0.9% sodium chloride (normal saline) from Lymphomed (Deerfield, Ill.) and Trappsol™ HPB-L100 (aqueous hydroxypropyl beta cyclodextrin; 45 wt/vol % aqueous solution) from Cyclodextrin Technologies Development, Inc. (Gainesville, Fla.). The OVA (500 μg/ml in normal saline) was mixed with equal volumes of 10% (wt/vol) alum in distilled water. The mixture (pH 6.5 using 10 N NaOH) after incubation for 60 minutes at room temperature underwent centrifugation at 750 g for 5 minutes; the pellet was resuspended to the original volume in distilled water and used within one hour.
# The selective 5-lipoxtgenase inhibitor, Zileuton (N-[1-benzo[b]thien-2-ylethyl]-N-hydroxyurea; J. Pharmacol Exp Ther. 1991; 256: 929-937), was kindly provided by Drs. Bell and George W. Carter (Abbott Laboratories, Abbott Part, Ill.). Zileuton was dissolved in Trappsol.™. Histatek, Inc. (Seattle, Wash.) provided the mast cell degranulation inhibitor, f-Met-Leu-Phe-Phe (“HK-X”).
# Female BALB/c […] (6-8 wk of age at purchase; D and K, Seattle Wash.) were housed under conventional conditions for the studies.
# Allergen Immunization/Challenge Protocols: Mice received an i.p. injection of 0.2 ml (100 μg) of OVA with alum on the different protocols of Standard (FIG. 5A) and Resolution (FIG. 5B) (J. Exp Med. 1996; 184: 1483-1494). According to the different protocols, mice were anesthetized with 0.2 ml i.p. of ketamine (0.44 mg/ml)/xylazine (6.3 mg/ml) in normal saline before receiving an intranasal (i.n.) does of 100 μg OVA in 0.05 ml normal saline and an i.n. dose of 50 μg OVA in 0.05 ml normal saline separately on different days. Two control groups were used. Accordingly, the first group received normal saline with alum i.p. and normal saline without alum i.n.; the second group received OVA with alum i.p., OVA without alum i.n., and normal saline, alone.
# The trachea and left lung (the right lung is used for bronchoalveolar lavage (“BAL”)) were obtained and fixed in 10% neutral formaldehyde solution at room temperature for 6˜15h. After being embedded in paraffin, the tissues were cut into 5-um sections and processed with the different staining or immunolabling further. Discombe's eosinophil staining was used for counting the cell numbers with the counterstain of methylene blue. The eosinophil number per unit airway area (2,200 μm^2) was determined by morphometry (J. Pathol. 1992; 166: 395-404; Am Rev Respir Dis. 1993; 147:448-456). Fibrosis was identified with the Masson's trichrome staining. Airway mucus was identified by the following staining method: methylene blue, hematoxylin and eosin, mucicarmine, alcian blue, and alcian blue/periodic acid-Schiff (PAS) reaction (Troyer, H., “Carbohydrates” in Principles and Techniques of Histochemistry, Little, Brown and Company, Boston, Mass., 1980: 89-121; Sheehan, D. C., et al., “Carbohydrates” in Theory and Practice of Histotechnology, Battle Press, Columbus, Ohio, 1980: 159-179). Mucin was stained with mucicarmine solution; metanil yellow counterstain was employed.
# Acidic mucin and sulfated mucosubstances were stained with alcian blue, pH 2.5; nuclear fast red counterstain was used. Neutral and acidic mucosubstances were identified by alcian blue. pH 2.5, and PAS reaction. The degree of mucus plugging of the airways (0.5-0.8 mm in diameter) was also assessed by morphometry. The percent occlusion of airway diameter by mucus was classified on a semiquantitative scale from 0 to 4+ as described in Figure Legends. The histologic and morphometric analyses were performed by individuals blinded to the protocol design. […]
substance,measurement,setting,value
f-Met-Leu-Phe-Phe (For-MLFF) [Example 9],Reduction of airway eosinophils over time course,"1-, 2- and 3-month groups, versus OVA","reduced eosinophils comparably at one month, but much more beneficially at two and three months"
same,% of plug of airway,28 days,19%
same,Mucus plug score in airways,"28 days, semiquantitative scale 0 to 4+",1.4
same,"Mucus accumulation / mucus release in the airway (histology, morphometry)","HK-X given before i.n. OVA, FIG. 6, listed as HK-X",inhibits mucus accumulation; also recorded: markedly reduced
same,Infiltration of the interstitial tissue by eosinophils (histology),"compared to OVA-challenge alone, FIG. 6C",also reduced
same,Formation of mucus plugs / mucus production in small airways,"doses of 5 μg/kg and 10 μg/kg, FIG. 7",Both doses significantly reduce the mucus production in small airways
